In brackets after ≈: the same amount, converted by molar mass. Residues, ends and D or L forms follow the SMILES beside them.
Tests used:
[1] = test system: Escherichia coli; assay: Bactericidal activity against Escherichia coli ATCC 25922 incubated for 18 hrs by broth microdilution method; assay type: functional
[2] = test system: Klebsiella pneumoniae; assay: Bactericidal activity against Klebsiella pneumoniae ATCC 700603 incubated for 18 hrs by broth microdilution method; assay type: functional
[3] = test system: Staphylococcus aureus; assay: Bactericidal activity against Staphylococcus aureus ATCC 25923 incubated for 18 hrs by broth microdilution method; assay type: functional
[4] = test system: Escherichia coli; assay: Antibacterial activity against Escherichia coli ATCC 25922 incubated for 18 hrs by broth microdilution method; assay type: functional
[5] = test system: Bacillus subtilis; assay: Antibacterial activity against Bacillus subtilis ATCC 23857 incubated for 18 hrs by broth microdilution method; assay type: functional
[6] = test system: Staphylococcus epidermidis; assay: Antibacterial activity against Staphylococcus epidermidis ATCC 12228 incubated for 18 hrs by broth microdilution method; assay type: functional
[7] = test system: Bacillus subtilis; assay: Bactericidal activity against Bacillus subtilis ATCC 23857 incubated for 18 hrs by broth microdilution method; assay type: functional
[8] = test system: Staphylococcus aureus; assay: Antibacterial activity against Staphylococcus aureus at 2 times MIC preincubated for 1 hr with chymotrypsin followed by enzyme inactivation and bacterial addition and measured after 18 hrs; assay type: functional; conditions: time 19 hrs
[9] = test system: Klebsiella pneumoniae; assay: Antibacterial activity against Klebsiella pneumoniae ATCC 700603 incubated for 18 hrs by broth microdilution method; assay type: functional
[10] = test system: Pseudomonas aeruginosa; assay: Bactericidal activity against Pseudomonas aeruginosa ATCC 27853 incubated for 18 hrs by broth microdilution method; assay type: functional
[11] = test system: Staphylococcus aureus; assay: Antibacterial activity against Staphylococcus aureus ATCC 25923 incubated for 18 hrs by broth microdilution method; assay type: functional
[12] = test system: Erythrocyte; assay: Hemolytic activity in mouse erythrocytes assessed as concentration required to cause 10% hemolysis incubated for 1 hr; assay type: toxicity, cell-based
[13] = Retention time of the compound; assay type: physicochemical
[14] = test system: Staphylococcus epidermidis; assay: Bactericidal activity against Staphylococcus epidermidis ATCC 12228 incubated for 18 hrs by broth microdilution method; assay type: functional
[15] = test system: Staphylococcus aureus; assay: Antibacterial activity against Staphylococcus aureus at 2 times MIC preincubated for 1 hr with trypsin followed by enzyme inactivation and bacterial addition and measured after 18 hrs; assay type: functional; conditions: time 19 hrs
[16] = test system: Pseudomonas aeruginosa; assay: Antibacterial activity against Pseudomonas aeruginosa ATCC 27853 incubated for 18 hrs by broth microdilution method; assay type: functional
[17] = test system: Staphylococcus aureus; assay: Antibacterial activity against methicillin resistant Staphylococcus aureus 113 incubated for 18 hrs by broth microdilution method; assay type: functional
[18] = test system: Staphylococcus aureus; assay: Antibacterial activity against methicillin resistant Staphylococcus aureus 75 incubated for 18 hrs by broth microdilution method; assay type: functional
[19] = test system: Escherichia coli; assay: Antibacterial activity against rifampicin resistant Escherichia coli incubated for 18 hrs by broth microdilution method; assay type: functional
[20] = test system: Staphylococcus aureus; assay: Antibacterial activity against Staphylococcus aureus S125 incubated for 18 hrs by broth microdilution method; assay type: functional
[21] = test system: Staphylococcus aureus; assay: Antibacterial activity against kanamycin resistant Staphylococcus aureus incubated for 18 hrs by broth microdilution method; assay type: functional
[22] = test system: Staphylococcus aureus; assay: Antibacterial activity against Staphylococcus aureus incubated for 18 hrs by broth microdilution method; assay type: functional
[23] = test system: Escherichia coli; assay: Antibacterial activity against Escherichia coli incubated for 18 hrs by broth microdilution method; assay type: functional
[24] = test system: Staphylococcus aureus; assay: Antibacterial activity against methicillin resistant Staphylococcus aureus incubated for 18 hrs by broth microdilution method; assay type: functional
[25] = test system: Staphylococcus aureus; assay: Antibacterial activity against Staphylococcus aureus S794 incubated for 18 hrs by broth microdilution method; assay type: functional
[26] = test system: Staphylococcus aureus; assay: Antibacterial activity against rifampicin resistant Staphylococcus aureus incubated for 18 hrs by broth microdilution method; assay type: functional
[27] = test system: Escherichia coli; assay: Antibacterial activity against kanamycin resistant Escherichia coli incubated for 18 hrs by broth microdilution method; assay type: functional

Molecule | MIC [4] | MIC [5] | MIC [6] | MIC [9] | MIC [11] | MIC [16] | MIC [17] | MIC [18] | MIC [19] | MIC [20] | MIC [21] | MIC [22] | MIC [23] | MIC [24] | MIC [25] | MIC [26] | MIC [27] | further results
NCCCC[C@@H](N)C(=O)N[C@H](Cc1c[nH]c2ccccc12)C(=O)N[C@H](CCCCN)C(=O)N[C@H](Cc1c[nH]c2ccccc12)C(=O)N[C@H](CCCCN)C(=O)NCC(=O)NCC(=O)N[C@H](CCCCN)C(=O)N[C@H](Cc1c[nH]c2ccccc12)C(=O)N[C@H](CCCCN)C(=O)N[C@H](Cc1c[nH]c2ccccc12)C(=O)N[C@H](CCCCN)C(N)=O | 8 µM (≈ 13.2 µg/mL) | 2 µM (≈ 3.29 µg/mL) | 4 µM (≈ 6.58 µg/mL) | 16 µM (≈ 26.3 µg/mL) | 16 µM (≈ 26.3 µg/mL) | 64 µM (≈ 105 µg/mL) |  |  |  |  |  |  |  |  |  |  |  | MBC [1]: 8 µM (≈ 13.2 µg/mL); MBC [2]: 64 µM (≈ 105 µg/mL); MBC [3]: 32 µM (≈ 52.6 µg/mL); MBC [7]: 8 µM (≈ 13.2 µg/mL); Activity [8]: 100%; MBC [10]: 128 µM (≈ 211 µg/mL); MHC [12]: > 512 µM; Retention_time [13]: 11.03 min; MBC [14]: 8 µM (≈ 13.2 µg/mL); Activity [15]: 100%
NC[C@H]1O[C@H](O[C@H]2[C@H](O)[C@@H](O[C@H]3O[C@H](CO)[C@@H](O)[C@H](N)[C@H]3O)[C@H](N)C[C@@H]2N)[C@H](O)[C@@H](O)[C@@H]1O [KANAMYCIN] | 8 µM (≈ 3.88 µg/mL) | < 1 µM | > 128 µM | 64 µM (≈ 31 µg/mL) | < 1 µM | > 128 µM | 256 µM (≈ 124 µg/mL) | 256 µM (≈ 124 µg/mL) | 4 µM (≈ 1.94 µg/mL) | 256 µM (≈ 124 µg/mL) | 256 µM (≈ 124 µg/mL) | 0.5 µM (≈ 0.242 µg/mL) | 4 µM (≈ 1.94 µg/mL) | 256 µM (≈ 124 µg/mL) | 16 µM (≈ 7.75 µg/mL) | 4 µM (≈ 1.94 µg/mL) | 256 µM (≈ 124 µg/mL) | 
GENTAMICIN |  |  |  |  |  |  | 0.5 µM | 32 µM | 0.5 µM | 8 µM | 0.5 µM | 0.5 µM | 0.5 µM | 16 µM | 32 µM | 0.5 µM | 32 µM | 
CO[C@H]1/C=C/O[C@@]2(C)Oc3c(C)c(O)c4c(O)c(c(/C=N/N5CCN(C)CC5)c(O)c4c3C2=O)NC(=O)/C(C)=C\C=C\[C@H](C)[C@H](O)[C@@H](C)[C@@H](O)[C@@H](C)[C@H](OC(C)=O)[C@@H]1C [RIFAMPIN] | 16 µM (≈ 13.2 µg/mL) | < 1 µM | < 1 µM | 64 µM (≈ 52.7 µg/mL) | < 1 µM | 32 µM (≈ 26.3 µg/mL) | 0.5 µM (≈ 0.411 µg/mL) | 256 µM (≈ 211 µg/mL) | 256 µM (≈ 211 µg/mL) | 0.5 µM (≈ 0.411 µg/mL) | 4 µM (≈ 3.29 µg/mL) | 0.5 µM (≈ 0.411 µg/mL) | 16 µM (≈ 13.2 µg/mL) | 256 µM (≈ 211 µg/mL) | 32 µM (≈ 26.3 µg/mL) | 64 µM (≈ 52.7 µg/mL) | 32 µM (≈ 26.3 µg/mL) | 
C[C@@H](O)[C@H]1C(=O)N2C(C(=O)O)=C(S[C@@H]3CN[C@H](C(=O)N(C)C)C3)[C@H](C)[C@H]12 [MEROPENEM] |  |  |  |  |  |  | 0.5 µM (≈ 0.192 µg/mL) | 128 µM (≈ 49.1 µg/mL) | 0.5 µM (≈ 0.192 µg/mL) | 0.5 µM (≈ 0.192 µg/mL) | 0.5 µM (≈ 0.192 µg/mL) | 0.5 µM (≈ 0.192 µg/mL) | 0.5 µM (≈ 0.192 µg/mL) | 32 µM (≈ 12.3 µg/mL) | 0.5 µM (≈ 0.192 µg/mL) | 0.5 µM (≈ 0.192 µg/mL) | 0.5 µM (≈ 0.192 µg/mL) | 
NCCCC[C@@H](N)C(=O)N[C@H](Cc1c[nH]c2ccccc12)C(=O)N[C@H](CCCCN)C(=O)N[C@H](Cc1c[nH]c2ccccc12)C(=O)N[C@H](CCCCN)C(=O)N1CCC[C@@H]1C(=O)N1CCC[C@H]1C(=O)N[C@H](CCCCN)C(=O)N[C@H](Cc1c[nH]c2ccccc12)C(=O)N[C@H](CCCCN)C(=O)N[C@H](Cc1c[nH]c2ccccc12)C(=O)N[C@H](CCCCN)C(N)=O | 8 µM (≈ 13.8 µg/mL) | 4 µM (≈ 6.9 µg/mL) | 4 µM (≈ 6.9 µg/mL) | 16 µM (≈ 27.6 µg/mL) | 32 µM (≈ 55.2 µg/mL) | 4 µM (≈ 6.9 µg/mL) |  |  |  |  |  |  |  |  |  |  |  | MBC [1]: 8 µM (≈ 13.8 µg/mL); MBC [2]: 16 µM (≈ 27.6 µg/mL); MBC [3]: 64 µM (≈ 110 µg/mL); MBC [7]: 8 µM (≈ 13.8 µg/mL); Activity [8]: 100%; MBC [10]: 32 µM (≈ 55.2 µg/mL); MHC [12]: > 512 µM; Retention_time [13]: 11.03 min; MBC [14]: 8 µM (≈ 13.8 µg/mL); Activity [15]: 100%
CC[C@H](C)[C@H](N)C1=N[C@H](C(=O)N[C@@H](CC(C)C)C(=O)N[C@H](CCC(=O)O)C(=O)N[C@H](C(=O)N[C@H]2CCCCNC(=O)[C@H](CC(N)=O)NC(=O)[C@@H](CC(=O)O)NC(=O)[C@H](Cc3cnc[nH]3)NC(=O)[C@@H](Cc3ccccc3)NC(=O)[C@H]([C@@H](C)CC)NC(=O)[C@@H](CCCN)NC2=O)[C@@H](C)CC)CS1 [BACITRACIN] (HELM PEPTIDE1{[CC[C@H](C)[C@H](N)C1=N[C@H](C(=O)[*:2])CS1].L.[dE].I.K.[NCCC[C@@H](N[*:1])C(=O)[*:2]].I.[dF].H.[dD].N}$PEPTIDE1,PEPTIDE1,5:R3-11:R2$$$V2.0) | > 128 µM | > 128 µM | 16 µM (≈ 22.8 µg/mL) | > 128 µM | 32 µM (≈ 45.5 µg/mL) | > 128 µM | 16 µM (≈ 22.8 µg/mL) | 0.5 µM (≈ 0.711 µg/mL) | 256 µM (≈ 364 µg/mL) | 8 µM (≈ 11.4 µg/mL) | 16 µM (≈ 22.8 µg/mL) | 32 µM (≈ 45.5 µg/mL) | 256 µM (≈ 364 µg/mL) | 0.5 µM (≈ 0.711 µg/mL) | 256 µM (≈ 364 µg/mL) | 256 µM (≈ 364 µg/mL) | 256 µM (≈ 364 µg/mL) | 

Source: ChEMBL document CHEMBL5543109, “Novel β-Hairpin Antimicrobial Peptide Containing the β-Turn Sequence of -NG- and the Tryptophan Zippers Facilitate Self-Assembly into Nanofibers, Exhibiting Excellent Antimicrobial Performance” (J Med Chem, 2024)
